Literature values as cited in US10232044B2, “Controlled release aural pressure modulator compositions and methods for the treatment of OTIC disorders” (Otonomy, Inc., priority 2008, dated 2019).
Where two headings read alike, the source gives them in different places.

Assays:
[1] = test system: 8-isoprostaglandin F2α; settings: sensorineural hearing loss animal models, noise exposure
[2] = biological target: constitutively activated D136A mutant VP2 receptor (Homo sapiens, UniProt P30518, D136A)
[3] = test system: endolymphatic hydrops
[4] = test system: intra-ocular pressure; settings: glaucoma patients

Row | Structure (SMILES) | intra-ocular pressure [4] | other results
1 | O=C(O)CCC/C=C\C[C@@H]1[C@H](CNNC(=O)Nc2ccccc2)[C@H]2CC[C@@H]1O2 [SQ29548] |  | noise-induced changes in cochlear blood flow and vascular conductance [1]: prevents these noise-induced changes
2 | CCOc1ccc2c(c1)C1(CCC(OCCN3CCOCC3)CC1)C(=O)N2S(=O)(=O)c1ccc(C(=O)NC(C)(C)C)cc1OC (stereo not drawn) [SR-1211463] |  | behaviour at D136A mutant VP2 receptor [2]: inverse agonist
3 | NC(=O)CC[C@@H]1NC(=O)[C@H](Cc2ccccc2)NC(=O)[C@H](Cc2ccc(O)cc2)NC(=O)[C@@H](N)CSSC[C@@H](C(=O)N2CCC[C@H]2C(=O)N[C@@H](CCCN=C(N)N)C(=O)NCC(N)=O)NC(=O)[C@H](CC(N)=O)NC1=O [VP] |  | endolymphatic hydrops ([3]; chronic administration, guinea pigs): induces endolymphatic hydrops; endolymphatic hydrops ([3]; systemic administration, guinea pig): development of endolymphatic hydrops
4 | CCNC(=O)CCC/C=C\C[C@@H]1[C@@H](/C=C/[C@@H](O)CCc2ccccc2)[C@H](O)C[C@@H]1O [bimtoprost] | reduce intra-ocular pressure | 
5 | CC(C)OC(=O)CCC/C=C\C[C@@H]1[C@@H](CC[C@@H](O)CCc2ccccc2)[C@H](O)C[C@@H]1O [latanoprost] | reduce intra-ocular pressure | 
6 | CCCCC[C@H](O)/C=C/[C@@H]1[C@@H](C/C=C\CCCC(=O)O)[C@@H](O)C[C@H]1O [minprostin F2 alpha] | reduce intra-ocular pressure | 
7 | CC(C)OC(=O)CCC/C=C\C[C@@H]1[C@@H](/C=C/[C@@H](O)COc2cccc(C(F)(F)F)c2)[C@H](O)C[C@@H]1O [travoprost] | reduce intra-ocular pressure | 
8 | CCCCCCCC(=O)CC[C@@H]1[C@@H](C/C=C\CCCC(=O)O)[C@@H](O)C[C@H]1O [unoprostone] | reduce intra-ocular pressure | 
